Laboratory results from paper PMC5130005, “Indolin-2-one compounds targeting thioredoxin reductase as potential anticancer drug leads” (Oncotarget, 2016).

Key:
HCT 116 cells [1] = experiment: total cellular thiols; assay type: cell-based, human; conditions: 20-50 μM
[2] = target: T1, TrxR in Keap1-null (Keap1−/−) MEFs (Mus musculus, UniProt Q9JMH6); experiment: TrxR activity in Keap1-null MEF lysates; assay type: cell-based; conditions: 5 h treatment, 20 to 40 μM
T1 sequence (Q9JMH6 115-613 limits assumed): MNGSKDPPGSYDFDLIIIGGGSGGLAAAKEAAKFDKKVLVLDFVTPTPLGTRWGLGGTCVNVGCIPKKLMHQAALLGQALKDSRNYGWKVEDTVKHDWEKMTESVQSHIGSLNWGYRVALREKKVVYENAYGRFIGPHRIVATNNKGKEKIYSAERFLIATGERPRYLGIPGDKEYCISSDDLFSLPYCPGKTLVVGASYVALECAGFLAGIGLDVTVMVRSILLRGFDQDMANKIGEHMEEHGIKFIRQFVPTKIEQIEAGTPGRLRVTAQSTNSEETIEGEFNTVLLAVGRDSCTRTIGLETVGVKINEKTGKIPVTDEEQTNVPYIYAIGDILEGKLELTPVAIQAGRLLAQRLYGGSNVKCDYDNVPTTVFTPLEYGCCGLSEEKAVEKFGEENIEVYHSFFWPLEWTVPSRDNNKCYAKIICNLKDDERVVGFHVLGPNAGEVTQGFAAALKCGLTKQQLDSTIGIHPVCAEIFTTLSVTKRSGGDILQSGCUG
Experimental: Cells were seeded onto 100 mm or 60 mm culture plates and upon reaching ~70% confluency, they were subjected to drug treatment for indicated durations. Pellets of compound-treated or DMSO control cells comprising both attached and floating cells were collected and lysed in lysis buffer (25 mM Tris-HCl pH 7.5, 100 mM NaCl, 2.5 mM EDTA, 2.5 mM EGTA, 20 mM NaF, 1 mM Na3VO4, 20 mM sodium β-glycerophosphate, 10 mM sodium pyrophosphate, 0.5% Triton X-100) with freshly added protease inhibitor cocktail (Roche Diagnostics). Prior to being used in Western blot analysis and/or cellular TrxR, GR, Trx and GPx activity determination, lysates were precleared by centrifugation and protein concentrations were determined using a modified Bradford assay (Bio-Rad Laboratories) as described in the manufacturer's manual. This procedure for collecting whole cell lysate was used for all experiments except for the Trx-redox state determination experiment. […]
Freshly collected cell lysates were used for measurement of activity of cellular Trx and TrxR. […] The amount of free thiols generated from insulin reduction was determined by DTNB reduction at 412 nm using the VersaMax microplate reader. […] For each sample, Trx or TrxR activity was calculated as the absorbance at 412 nm subtracted from that of the corresponding control and expressed as a percentage of the activity measured in DMSO-treated cells.

recombinant rat TrxR = target: T2, recombinant rat TrxR (Rattus norvegicus, UniProt O89049); experiment: juglone reduction versus DTNB reduction by recombinant rat TrxR; assay type: biochemical; conditions: 15 min incubation, 15 nM TrxR, 250 μM NADPH, 1-100 μM
T2 construct: made in house
T2 sequence (O89049 1-499): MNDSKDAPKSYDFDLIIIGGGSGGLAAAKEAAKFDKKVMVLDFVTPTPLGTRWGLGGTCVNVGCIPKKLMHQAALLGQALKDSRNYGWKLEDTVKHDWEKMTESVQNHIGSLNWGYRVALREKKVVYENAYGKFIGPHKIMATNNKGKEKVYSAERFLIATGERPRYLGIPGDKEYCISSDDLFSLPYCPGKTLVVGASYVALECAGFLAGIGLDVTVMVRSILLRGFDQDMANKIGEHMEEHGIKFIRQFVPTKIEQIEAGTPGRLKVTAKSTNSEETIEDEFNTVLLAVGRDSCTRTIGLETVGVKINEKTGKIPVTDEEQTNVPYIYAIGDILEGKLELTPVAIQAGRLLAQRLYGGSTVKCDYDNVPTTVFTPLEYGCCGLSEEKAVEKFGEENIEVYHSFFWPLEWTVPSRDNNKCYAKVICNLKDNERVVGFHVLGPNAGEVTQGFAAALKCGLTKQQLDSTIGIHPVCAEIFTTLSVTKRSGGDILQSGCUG
Experimental: The assay, designed to determine the ability of mammalian TrxR to reduce juglone at the N-terminal active center, was performed as described previously. Briefly, 2 μl of diluted DMSO stocks of compounds 4 and 5 (final concentrations 1-100 μM) were incubated in 198 μl of 15 nM recombinant rat TrxR, 250 μM NADPH and 0.1 mg/ml BSA in TE buffer at room temperature in 96-well plates for 15 min. 100 mM stock solution of juglone in DMSO was prepared fresh for each experiment and diluted in TE buffer to a 300 μM working solution. The incubation was terminated by the addition of 100 μl of 300 μM juglone solution (final concentration 100 μM), and NADPH consumption was monitored at 340 nm for 5 min using the VersaMax microplate reader. The linear decrease in NADPH absorbance was used for calculating juglone reduction activity. The results were expressed as % of TrxR juglone reduction activity of drug-treated sample over that of DMSO-treated sample.
The experiments were performed at the same time with a corresponding DTNB reduction assay as described above with modifications so as to keep the experimental parameters and conditions similar to those in the juglone reduction assay. […] Following 15 min incubation with compound 4 or 5, 50 μl of 8.75 μM DTNB solution (final concentration 1.75 μM) was added to each well and DTNB reduction was measured at 412 nm for 2 min.

HCT 116 cells [3] = experiment: apoptosis induction by Western blot of cleaved caspase 3 and PARP; assay type: cell-based, human; conditions: 10 h
Experimental: Cells were seeded onto 100 mm or 60 mm culture plates and upon reaching ~70% confluency, they were subjected to drug treatment for indicated durations. Pellets of compound-treated or DMSO control cells comprising both attached and floating cells were collected and lysed in lysis buffer (25 mM Tris-HCl pH 7.5, 100 mM NaCl, 2.5 mM EDTA, 2.5 mM EGTA, 20 mM NaF, 1 mM Na3VO4, 20 mM sodium β-glycerophosphate, 10 mM sodium pyrophosphate, 0.5% Triton X-100) with freshly added protease inhibitor cocktail (Roche Diagnostics). Prior to being used in Western blot analysis and/or cellular TrxR, GR, Trx and GPx activity determination, lysates were precleared by centrifugation and protein concentrations were determined using a modified Bradford assay (Bio-Rad Laboratories) as described in the manufacturer's manual. This procedure for collecting whole cell lysate was used for all experiments except for the Trx-redox state determination experiment. Equal amounts of protein (50 μg) in each lysate sample were separated by SDS-PAGE, followed by electroblotting onto nitrocellulose membranes. Electroblotted proteins on membranes were probed with a primary antibody and subsequently by a secondary antibody conjugated to HRP.

| SMILES | total cellular thiols (HCT 116 cells [1]) | TrxR activity in Keap1−/− MEFs [2] | juglone reduction compared with DTNB reduction by inhibited TrxR (recombinant rat TrxR) | apoptosis induction (cleaved caspase 3 and PARP) (HCT 116 cells [3]) |
| --- | --- | --- | --- | --- |
| CCCCN1C(=O)/C(=C/C(C)=O)c2ccccc21 [Compound 4] | depletion of total cellular thiols in a dose-dependent manner | elevated TrxR activity | juglone reduction was more preserved than DTNB reduction | Dose-dependent induction of apoptosis |
| CC(=O)/C=C1/C(=O)N(Cc2ccccc2)c2ccccc21 [Compound 5] | depletion of total cellular thiols in a dose-dependent manner | elevated TrxR activity | juglone reduction was more preserved than DTNB reduction | Dose-dependent induction of apoptosis |
